The values that follow come from patent US9370570B2, “Polychlorinated biphenyls and squalene-containing adjuvants” (priority 2007, dated 2016).

For data set [1] the following is noted: WHO 2005 TEF values for PCBs in humans; fraction of the toxicity of 2,3,7,8-TCDD dioxin (reference value 1); cited from earlier work.
Data set [2] is described as follows: levels of seven dioxins and ten furans in squalene samples, as TEQs. Particulars: WHO 2005 TEFs; + = 1,2,3,4,6,7,8-HpCDD. The protocol:
In addition to measuring PCB content, levels of seven dioxins and ten furans were measured. […] TEQs from PCBs, dioxins and furans for these samples were as follows, measured in pg/g according to WHO 2005 TEFs: […]

Take `Clc1ccc(-c2cc(Cl)c(Cl)c(Cl)c2Cl)cc1Cl` [PCB #156]: the “TEF (toxic equivalency factor)” value in data set [1] is given as 0.00003.
Consider `Clc1ccc(-c2cc(Cl)c(Cl)cc2Cl)cc1Cl` [PCB #118], for which the “TEF (toxic equivalency factor)” value in data set [1] is 0.00003.
For `Clc1cc(Cl)c(-c2cc(Cl)c(Cl)c(Cl)c2)cc1Cl` [PCB #167], the “TEF (toxic equivalency factor)” value in data set [1] was 0.00003.
Regarding `Clc1cc(Cl)c(-c2cc(Cl)c(Cl)c(Cl)c2Cl)cc1Cl` [PCB #180], the “TEF (toxic equivalency factor)” value in data set [1] is on record as 0.00001.
For `Clc1ccc(-c2cc(Cl)c(Cl)c(Cl)c2)cc1` [PCB #81, 3,4,4′,5-tetrachlorobiphenyl], in data set [1], the “TEF (toxic equivalency factor)” value is reported as 0.0003.
With `Clc1ccc(-c2cc(Cl)c(Cl)c(Cl)c2)cc1Cl` [PCB #126, 3,3′,4,4′,5-pentachlorobiphenyl], in data set [1], the “TEF (toxic equivalency factor)” value is reported as 0.1.
For the compound `Clc1ccc(-c2ccc(Cl)c(Cl)c2Cl)cc1Cl` [PCB #105], the “TEF (toxic equivalency factor)” value in data set [1] is given as 0.00003.
Consider `Clc1ccc(-c2ccc(Cl)c(Cl)c2)cc1Cl` [PCB #77, 3,3′,4,4′-tetrachlorobiphenyl], for which, in data set [1], the “TEF (toxic equivalency factor)” value is 0.0001.
Take `Clc1ccc(-c2cc(Cl)c(Cl)c(Cl)c2Cl)cc1` [PCB #114]: the “TEF (toxic equivalency factor)” value in data set [1] is 0.00003.
Consider `Clc1cc(-c2cc(Cl)c(Cl)c(Cl)c2)cc(Cl)c1Cl` [PCB #169, 3′,4,4′,5,5′-hexachlorobiphenyl], for which, in data set [1], the “TEF (toxic equivalency factor)” value is listed as 0.03.
For the compound `CC(C)=CCCC(C)=CCCC(C)=CCCC=C(C)CCC=C(C)CCC=C(C)C` [squalene, 2,6,10,15,19,23-hexamethyl-2,6,10,14,18,22-tetracosahexaene], the “TEQ from Dioxins” value in data set [2] is reported as 28.158 ^+ pg/g.
As for `Clc1ccc(-c2cc(Cl)c(Cl)c(Cl)c2)c(Cl)c1` [PCB #123], the “TEF (toxic equivalency factor)” value in data set [1] was 0.00003.
For `Clc1cc(-c2cc(Cl)c(Cl)c(Cl)c2Cl)cc(Cl)c1Cl` [PCB #189], in data set [1], the “TEF (toxic equivalency factor)” value is given as 0.00003.
In the case of `Clc1cc(-c2ccc(Cl)c(Cl)c2Cl)cc(Cl)c1Cl` [PCB #157], the “TEF (toxic equivalency factor)” value in data set [1] is 0.00003.
In the case of `Clc1cc2c(cc1Cl)Oc1cc(Cl)c(Cl)cc1O2` [2,3,7,8-TCDD, reference compound], in data set [1], the “TEF (toxic equivalency factor)” value is 1.
